These results are taken from publication PMC6426897, “Inhibition of NLRP3 inflammasome activation by cell-permeable stapled peptides” (Scientific Reports, 2019).

Structures are written as SMILES. Where a SMILES comes first, the peptide text is derived from it. Bridges are numbered along the chain shown (N, C = ends). [ ]: non-standard residue; d: D form. R8 = C=CCCCCCC[C@@](C)(N)C(=O)O; S5 = C=CCCC[C@](C)(N)C(=O)O

The subject of data set [1] is NLRP3 inflammasome. The data set can be described thus: IL-18 release from THP-1 cells stimulated with LPS and nigericin (ELISA). The following applies: THP-1, LPS/nigericin; 12.5, 25, 50 and 100 μM; Fig. 8A. It is filed as cell-based, human. The protocol: (§1) Human monocytic THP-1 cells (1 × 10^7 cells) were plated in a 10-cm tissue culture dish and treated with PMA (200 nM) overnight to differentiate monocytic cells into macrophages. Cells were then washed and allowed to rest in fresh media for another day. For stimulation, differentiated THP-1 cells were trypsinized and seeded in 96-well plates (2 × 10^6/well). Peripheral blood mononuclear cells were isolated by Ficoll-Hypaque density gradient centrifugation from buffy coats obtained from anonymous donors provided by the National University Hospital Blood Bank, Singapore. Isolation of monocytes was performed using negative selection with the Monocyte Isolation Kit II (Miltenyi Biotech), following the manufacturer’s instructions. Monocytes were plated in tissue culture non-treated 96-well plates (2.5 × 10^5/well) in 250 µl RPMI 1640-Glutamax media supplemented with 3% human AB serum (Gemini Bio Products). […]
(§2) IL-1β levels were measured using antibodies from eBioscience (cat. #14-7018-81 and #13-7016-85), following the manufacturer’s instructions. IL-18 levels were measured using antibodies from MBL (D044-3 and D045-6) following the manufacturer’s instructions. The absorbance was measured at 450 nm with the reference wavelength at 570 nm, using an M200 Infinite plate reader (Tecan).
A general note: In an ELISA, binding on a coated surface is turned into a signal by an enzyme label.

The next data set concerns ASC. The data set can be described thus: Imaging of ASC speck oligomerization in THP-1 cells. It is filed as cell-based, human. The following applies: THP-1, LPS 0.1 μg/ml 4 h, nigericin 10 μM 1 h; 100 μM peptide; Fig. 8E. Here is the method:
Figure 8 ASC peptides effectively block IL-1β and IL-18 release and ASC oligomerization in human blood monocytes. (A) IL-1β and IL-18 were measured in cell-free supernatants from THP-1 cells incubated with FAM-ASC^PYD #5 or FAM-ASC^PYD #6 (12.5, 25,50 and 100 μM) for 24 h and primed with LPS (0.1 μg/ml, 4 h) followed by stimulation with nigericin (10 μM, 1 h), as assessed by ELISA. (B) Production of IL-1β and IL-18 from human blood monocytes stimulated or not with LPS (0.1 μg/ml, 4 h) alone or in a combination of ATP (5 mM, 30 min) in the presence of FAM-ASC^PYD #5 or FAM-ASC^PYD #6 (25, 50 and 100 μM) peptides. (C,D) Western blot analysis of processed IL-1β p17 (C) and Casp-1 p20 (D) in cell-free supernatants of THP-1 cells primed with LPS (0.1 μg/ml, 4 h), followed by stimulation with nigericin (10 μM, 1 h) in the presence of FAM-ASC^PYD #5 (25, 50 and 100 μM), FAM-ASC^PYD #6 (50 and 100 μM) peptides, or DMSO vehicle. Expression of pro-IL-1β p35 and pro-Casp-1 p50 was assessed in cell lysates. GAPDH was used as loading control. (E) Imaging of ASC speck oligomerization in THP-1 cells treated with LPS (0.1 μg/ml, 4 h) and nigericin (10 μM, 1 h) in the absence or presence of FAM-ASC^PYD #5 or FAM-ASC^PYD #6 (100 μM) peptides. The number of ASC specks were counted manually in at least 100 cells, and the proportion of cells containing a speck was shown. […]

Data set [2] deals with NLRP3 inflammasome. The data set can be described thus: IL-18 secretion from LPS-primed primary human monocytes upon ATP stimulation (ELISA). Type of data set: cell-based. The following applies: human blood monocytes, LPS 0.1 μg/ml 4 h, ATP 30 min; 25, 50 and 100 μM; Fig. 8B. The protocol:
as §1, §2

Data set [3] is described as follows: Circular dichroism, percentage of helicity (K2D3). It is filed as physicochemical. Particulars: CD, room temperature, water, 100 μM peptide; estimated with K2D3. The source says:
The conformation of helix 2 (^16TAEELKKFKLKLLSV^30) bound to ASC^PYD (Fig. 1A) was used as the starting structure for the peptide-protein interaction modeling. Following I,I + 7 stapling scheme, we inserted a hydrocarbon staple across positions 5 and 12 along the peptide and then introduced mutations to produce a set of stapled peptides. Two variants of the template peptide were designed – a short version containing 13 residues (ms_ASC^PYD #6) and a long version containing 15 residues (ms_ASC^PYD #1–5) with two additional residues at the N-terminus (Table 1). These two additional residues were inserted to increase the length of the peptide, thus potentially enabling sufficient conformational flexibility for the region involving the critical Arg3 to remain helical. A similar approach was taken to introduce the staple in the ms_NLRP3^PYD peptide. As determined from Circular Dichroism (CD) spectra, inserting the I,I + 7 staple had the intended effect of increasing helicity of the peptides (Fig. 3). […] Percentage of helicity was much higher for ASC^PYD stapled peptides #5 and #6, 95% and 70% respectively at 100 μM peptide concentration. Percentage of helicity for the peptides were estimated from the web server K2D3[36] using CD data.
Figure 3 Circular dichroism (CD) spectra of (A) NLRP3^PYD and (B) ASC^PYD peptides to measure secondary structures.

For `CC[C@H](C)[C@@H]1NC(=O)[C@H](CCCCN)NC(=O)[C@H](C)NC(=O)[C@H](CC(C)C)NC(=O)[C@H](CCCCN)NC(=O)[C@](C)(NC(=O)[C@H](C)NC(=O)[C@H](CCCNC(=N)N)NC(=O)[C@H](C)NC(=O)[C@@H](NC(C)=O)[C@@H](C)O)CCCCCCC=CCCC[C@@](C)(C(=O)N[C@@H](CCC(=O)O)C(=O)N[C@@H](CO)C(=O)N[C@H](C(N)=O)C(C)C)NC(=O)[C@H](CCCCN)NC1=O` [ms_ASC^PYD #5] (Ac-TARA[R8]KLAKIK[S5]ESV-NH2; staple 5-12), the “IL-18 production (in words)” value in the data set with NLRP3 inflammasome [1] is given as “decreased IL-18 production by LPS/nigericin-stimulated THP-1 cells in a dose-dependent manner”. Moreover, the ASC speck formation result in the data set on ASC was “significantly inhibited speck formation”. For the same molecule, the “IL-18 secretion (in words)” value in the data set on NLRP3 inflammasome [2] was “effectively inhibited”. In addition, in data set [3], the Percentage of helicity was 95%.
The matching figures for `CC[C@H](C)[C@@H]1NC(=O)[C@H](CCCCN)NC(=O)[C@H](C)NC(=O)[C@H](CCCCN)NC(=O)[C@H](CCCCN)NC(=O)[C@](C)(NC(=O)[C@H](C)NC(=O)[C@H](CCCNC(=N)N)NC(C)=O)CCCCCCC=CCCC[C@@](C)(C(=O)N[C@@H](CCC(=O)O)C(=O)N[C@@H](CO)C(=O)N[C@H](C(N)=O)C(C)C)NC(=O)[C@H](CCCCN)NC1=O` [ms_ASC^PYD #6] (Ac-RA[R8]KKAKIK[S5]ESV-NH2; staple 3-10): “decreased IL-18 production by LPS/nigericin-stimulated THP-1 cells in a dose-dependent manner”, “significantly inhibited speck formation”, “effectively inhibited” and 70%.
